Laboratory results taken from US5776769A, “Cell-type specific methods and devices for the low temperature preservation of the cells of an animal species” (Methodist Hospital of Indiana, priority 1995, dated 1998).

Legend:
human spermatozoa = conditions: cited from earlier work
human sperm cells = assay: Glycerol removal with porous-membrane diffusion device; assay type: cell-based
Source text: A cell suspension with cryoprotectants is placed in the chamber (region 2) with an internal space/thickness of L. Two walls of the chamber are the porous membranes (regions 1 and 3) with special characteristics (e.g. membrane thickness: 150 μm, pore size: 0.22 to 0.65 μm in diameter, pore area: 70% of the total membrane surface area). For removing CPAs, isotonic cell culture medium without CPAs are continuously pumped and run through compartments (4 and 5) to quickly remove CPAs diffusing from the chamber (region 2) through the porous membrane. Meanwhile, the isotonic medium diffuses into the chamber to dilute the CPA concentration in the cell suspension. Because the porous membrane used is a nonselective membrane (pore size […]), CPAs and other solutes and solvents (water) diffuse freely across the […] with a constant cell suspension volume in the chamber. The pore size of the porous membrane, the thickness of the cell chamber, the diffusibility of CPA in the solution, the permeability coefficients of the cell membrane to water and CPA are control factors used in the design of the system. Basic assumptions and mathematical formulation describing the CPA diffusion across the porous membrane and the change of CPA concentration distribution in the chamber (i.e., the extracellular environment) are as follows:
A corresponding computer program using a finite difference method to calculate the above equations is used to simulate the mass transfer process in the system. The values of f, L2, Cf, Ci, L1, D1, D2 and hD can be used as control factors or adjustable parameters in the computer simulation. […] Calculated kinetic changes of glycerol concentration (initial 1M) at the chamber position A (center, see FIG. 19) and B (internal surface of porous membrane, see FIG. 19) are shown in FIG. 21, and the corresponding cell volume changes are calculated and predicted to be below the cell tolerance limit (1.1 times isotonic sperm volume), as shown in FIG. 22.

human sperm [1] = assay: Sperm motility (CASA) after glycerol addition and removal procedures; assay type: cell-based; conditions: for sperm motility loss: final 1M glycerol, 22° C.
Experimental: Sperm motility was measured by computer assisted semen analysis (CASA) using CELLSOFT™, version 3.2/C. CASA was performed before, during, and after the anisosmotic exposures of the sperm samples. All experiments were conducted at 22° C.
TL-HEPES medium with 2M glycerol was either one-step or stepwise added to an equal volume of the isotonic sperm suspension to achieve a final 1M glycerol concentration at 22° C. Glycerol in the sperm was removed by dilution either by a one-step or stepwise addition of the TL-HEPES medium with or without an osmotic buffer (sucrose) placed into the cell suspension. The detailed procedures for the glycerol addition and removal are described in Tables 2-5. Sperm motility before, during, and after the different glycerol addition and removal procedures was measured by CASA. The membrane integrity of the sperm was determined by the dual staining technique and flow cytometry.
The time interval between two steps was approximately 1-2 minutes. The volume of solution added in each step was calculated using Equations 5 or 6.
The final 90 μl of sperm suspension were further diluted by adding 180 μl of TALP solution for the CASA analysis. The time interval between two steps is approximately 1-2 minutes. The volume of diluent added in each step was calculated using Equations 7 or 8.
Add 2000 μl of isotonic solution directly to 100 μl of cell suspension with 1M glycerol.
(1) Add 2000 μl of sucrose buffer medium

human sperm [2] = assay: Sperm membrane integrity (dual staining, flow cytometry) after glycerol addition and removal; assay type: cell-based; conditions: in 1M glycerol or after addition and removal of 1M glycerol by the different procedures
Source text: One preferred procedure to assess cell viability utilizes dual flourescent staining and flow cytometric analysis as disclosed by Garner in Assessment of Spermatozoal Function Using Dual Fluorescent Staining and Flow Cytometric Analysis, Biol. Reprod. 34, 127-138, 1986, which is hereby incorporated into this specification by reference. Propidium iodide (PI) is a bright red, nucleic acid-specific fluorophore available from the Sigma Chemical Co. PI permeates poorly into sperm cells with intact plasma membranes, however, it readily diffuses into sperm having damaged membranes and stains the DNA red. […]
Plasma membrane integrity was analyzed by placing five μl of CFDA (suspended in 0.25 mg/ml of DMSO) and 5 μl of PI (suspended in 1 mg/ml H2 O) solutions into 0.5 ml of a particular sperm suspension. […] A total of 1×10^5 spermatozoa per treatment were analyzed using a FACSTAR PLUS™ flow cytometer.
TL-HEPES medium with 2M glycerol was either one-step or stepwise added to an equal volume of the isotonic sperm suspension to achieve a final 1M glycerol concentration at 22° C. […] Sperm motility before, during, and after the different glycerol addition and removal procedures was measured by CASA. The membrane integrity of the sperm was determined by the dual staining technique and flow cytometry.

SMILES: O [Water, water]
- Water permeability coefficient (Lp) (human spermatozoa; not told): 2.16 um/minutes/atm

SMILES: OCC(O)CO [glycerol]
- time for removal of over 95% of 1M glycerol (human sperm cells): ≤ 10 min
- cell clumping, loss in motility or membrane integrity, or curling of sperm tails (human sperm cells; 1M glycerol removal within 10 minutes): without significant cell clumping, loss in motility or membrane integrity, or curling of sperm tails
- glycerol removed from the human sperm cells (human sperm cells; 1M glycerol, within 10 minutes): over 95%
- Glycerol permeability coefficient (PCPA) (human spermatozoa; 22° C., human spermatozoa): 18.3 ×10⁻⁶ cm/s
- sperm that maintained motility (human sperm [1]; eight-step FMS removal of 1M glycerol): over 92%
- sperm that lost motility (human sperm [1]; eight-step FVS removal of 1M glycerol): Thirty-five percent
- sperm motility loss (human sperm [1]; four-step FMS addition): less than 8%
- sperm motility loss (human sperm [1]; one step addition): approximately 20%
- motile sperm that kept motility (human sperm [1]; one-step removal of 1M glycerol): Less than 30%
- motility loss (human sperm [1]; two-step removal of 1M glycerol using sucrose as non-permeating buffer (600 mOsm)): ~45%
- membrane integrity of the human sperm (human sperm [2]): appeared to maintain membrane integrity under all experimental conditions
